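Where inhibition never reached the appropriate level, the endpoint shown equals the highest concentration tested. Otherwise, values were interpolated linearly from a five-concentration, 48-hour dose response in 96-well plates. GI50 = concentration required for 50% inhibition of growth.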 Active and inactive are the calls of the source. Cut-off read from the data, not from the text of the source: active = GI50 up to about 1.1 µM and inactive = higher.
Experiments:
Assay in all cases: growth of human tumour cells (NCI), 48 h
DU-145 = test system: DU-145
Hs-578T = test system: Hs-578T
MDA-MB-231 = test system: MDA-MB-231
PC-3 = test system: PC-3
T47D = test system: T47D
DLD-1 = test system: DLD-1
SNB-78 = test system: SNB-78
RXF 631 = test system: RXF 631
XF498 = test system: XF498

Measured: GI50

CN(CCO)Cc1ncccc1O
inactive: DU-145 > 100 µM | Hs-578T > 100 µM | MDA-MB-231 > 100 µM | PC-3 > 100 µM | T47D > 100 µM

CON(C)C(C#N)=C(C#N)C#N
inactive: DU-145 > 10 µM | Hs-578T > 10 µM | MDA-MB-231 > 10 µM | PC-3 > 10 µM | T47D > 10 µM

O=C1c2ccccc2N(O)C1(c1ccccc1)C1CCCC=C1N1CCOCC1 (stereo unspecified)
inactive: DLD-1 > 100 µM | SNB-78 > 100 µM

C=CCCN1CCc2c([nH]c3ccccc23)C1C(=O)O (stereo unspecified)
inactive: DLD-1 > 100 µM | RXF 631 > 100 µM | SNB-78 > 100 µM | XF498 > 100 µM

COc1cccc(OCC(=N/NC(=O)c2ccncc2)/N=C/c2ccncc2)c1
inactive: DU-145 > 100 µM | Hs-578T > 100 µM | MDA-MB-231 > 100 µM | PC-3 > 100 µM | T47D > 100 µM

O=[N+]([O-])c1ccc(N2N=C(c3ccc(NCc4nc5ccccc5[nH]4)cc3)CC2c2ccco2)cc1 (stereo unspecified)
inactive: DLD-1 29.4 µM

CC1NC(=O)C(C)C(c2ccccc2)N(N=O)C1c1ccccc1 (stereo unspecified)
inactive: DLD-1 72.1 µM | SNB-78 > 100 µM | XF498 29.9 µM

CC(=O)Nc1ccc(C(=O)NN2C(=O)C(Cl)/C2=C/c2ccco2)cc1 (stereo unspecified)
inactive: DLD-1 > 100 µM

CC1=CC(C)C(C)N(CC2=NCCN2)c2ccccc21 (stereo unspecified)
inactive: DU-145 > 69.5 µM | Hs-578T > 74.3 µM | MDA-MB-231 32.9 µM | PC-3 46.3 µM | T47D > 57.8 µM

CC(=O)OCc1c(C)c2ccccc2n1C(C)=O
inactive: RXF 631 25.2 µM | XF498 26.5 µM

Cn1cc(-c2csc(-c3cn(C)c4ccccc34)n2)c2ccccc21
inactive: DU-145 42.9 µM | Hs-578T > 100 µM | MDA-MB-231 17.3 µM | PC-3 21.9 µM | T47D 2.81 µM

Cn1c2ccc([N+](=O)[O-])cc2c(=O)n1Cc1ccccc1F
inactive: DU-145 51.2 µM | Hs-578T 25.8 µM | MDA-MB-231 34.2 µM | PC-3 55.7 µM | T47D 19.4 µM

ClCc1ccc2ccc3ccc(CCl)nc3c2n1
inactive: DLD-1 1.5 µM | SNB-78 2.88 µM | XF498 1.65 µM

C=C1C(=O)OC2CC1CCC1(C)OC1CCC(C)=CCCC2(C)O (stereo unspecified)
inactive: DLD-1 1.81 µM | SNB-78 7.74 µM | XF498 3.73 µM

CC1=C2C3OC(=O)C(C)C3CCC2(C)C=C/C1=N\c1ccccc1 (stereo unspecified)
inactive: DLD-1 > 100 µM | SNB-78 > 100 µM

Cc1cc(C(=O)NCCN(C)C)c2nc3ccccc3cc2c1
inactive: DLD-1 1.96 µM | SNB-78 4.45 µM | XF498 1.42 µM

CC1CC/C(=C\c2ccc(N(C)C)cc2)C2=C1C(c1ccc(N(C)C)cc1)NC(=S)N2 (stereo unspecified)
inactive: DU-145 > 100 µM | Hs-578T > 100 µM | MDA-MB-231 > 100 µM | PC-3 40.3 µM | T47D > 100 µM

CN1C(=O)CCC1c1ccc2c(c1)oc(=O)n2C (stereo unspecified)
inactive: DLD-1 > 100 µM | SNB-78 > 100 µM | XF498 > 100 µM

CN(C)C(=O)NCCN1CCCCCc2ccccc21
inactive: DU-145 > 100 µM | Hs-578T > 100 µM | MDA-MB-231 57.1 µM | PC-3 > 100 µM | T47D > 100 µM

CCN(CC)c1cccc2c1/C(=N/O)CCCC2
inactive: SNB-78 > 100 µM | XF498 > 100 µM

CC[C@H](O)[C@H](C)C=C1SCCCS1
inactive: DU-145 > 100 µM | Hs-578T > 100 µM | MDA-MB-231 > 100 µM | PC-3 > 100 µM

CCOC(=O)c1cc(Br)c(-c2cc(C)no2)[nH]1
inactive: DU-145 20.5 µM | MDA-MB-231 29.2 µM | PC-3 28.4 µM | T47D 28.1 µM

O=C1C(Cl)N(c2ccccc2[N+](=O)[O-])C1c1c[nH]c2ccccc12 (stereo unspecified)
inactive: XF498 > 100 µM

O=C1C=CC(=O)c2c(Cl)ccc(O)c21
inactive: DLD-1 13.9 µM | SNB-78 22 µM | XF498 17.5 µM
